Measurements from patent publication US20190282673A1, “STAPHTAME ACTIVITY ON BIOFILMS” (priority 2016, published 2019).
Where “and” joins values, the source holds several entries; their conditions need not be identical. Equal values may be shown once. Read-outs that look alike come from different tables or passages of the source.

B1: P128: anti-staphylococcal chimeric protein: phage tail associated muralytic enzyme (TAME) cell wall-degrading region plus staphylococcus-specific binding region; SEQ ID NO: 1 (protein)
chain: MSLDSLKKYNGKLPKHDPSFVQPGNRHYKYQCTWYAYNRRGQLGIPVPLWGDAADWIGGAKGAGYGVGRTPKQGACVIWQRGVQGGSPQYGHVAFVEKVLDGGKKIFISEHNYATPNGYGTRTIDMSSAIGKNAQFIYDKKLETPNTGWKTNKYGTLYKSESASFTPNTDIITRTTGPFRSMPQSGVLKAGQTIHYDEVMKQDGHVWVGYTGNSGQRIYLPVRTWNKSTNTLGVLWGTIK
modifications: P128 chimera

Legend:
[1] = tested on: S. aureus BK18 and B9377 persisters; assay: P128 and antibiotic activity on persisters (CFU); format: cell-based, Staphylococcus aureus; settings: for CFU/mL after treatment of persisters: 1×MIC, P128 1 h, antibiotics 6 h
Procedure: (§1) Persisters were generated as above were treated with P128 and antibiotics (Ref: Gutiérrez, et al. (2014) Effective Removal of Staphylococcal Biofilms by the Endolysin LysH5 PLoS One 9(9): e107307).
(§2) To 450 μL aliquots, P128. Daptomycin and Vancomycin (in saline) were added (individually) each at 1×MIC Conc., and another 450 μL aliquot was taken as control. The persister samples treated with P128 were incubated for 1 h, 37° C., and 200 rpm and those treated with antibiotics were incubated for 6 h, 37° C., and 200 rpm. After incubation samples were serially log diluted and plated.

[2] = tested on: S. epidermidis B9470 persisters; assay: P128 and antibiotic activity on persisters (CFU); format: cell-based, Staphylococcus epidermidis; settings: 1×MIC, P128 1 h, antibiotics 6 h
Procedure: as §1, §2

S. aureus biofilm = assay: Bactericidal activity on biofilm (CFU reduction); format: cell-based, Staphylococcus aureus; settings: for Reduction in CFU counts: S. aureus MW2 biofilm on catheters, P128 8 μg/mL, daptomycin 10 μg/mL, vancomycin 15 μg/mL
Procedure: In order to determine whether P128 could also act as a bactericidal agent in biofilms, the CFU reduction were monitored in S. aureus ATCC 29213 72 h preformed biofilms treated with various concentrations of P128 for 6 h. For CFU enumeration in catheter biofilm, the catheters were removed from the tubes, rinsed twice in PBS and placed in eppendorf tubes containing 1 mL PBS. To release the adhered biofilm into PBS, the catheters were scraped using inoculation loop. The samples were vortexed thoroughly and plated on LB agar plates.

S. aureus COL = format: in vivo, BALB/c mice; settings: P128 0.2 mg/kg ip single dose, or both
Procedure: A standard mouse model of S. aureus bacteremia was used. Zuluaga, et al. (2006) “Neutropenia induced in out bred mice by a simplified low-dose cyclophosphamide regimen: Characterization and applicability to diverse experimental models of infectious diseases” BMC Infect. Dis. 6:55-64. Female BALB/c mice of 8-9 weeks age were challenged by intraperitoneal route with S. aureus COL at 10^9 CFU per animal. After the bacterial challenge, animals were treated through parenteral routes with P128 alone or P128 in combination with standard of care antibiotics (e.g., vancomycin, daptomycin, linezolid, oxacillin, etc.). Animals were monitored for survival for a period of 72 hours. In this model of infection, normal as well as immunocompromised (neutropenia induced by cyclophosphamide) mice were used to evaluate P128 and antibiotic-P128 combinations.
Eight to nine weeks old female BALB/c mice were challenged intraperitoneally with 10^9 CFU of S. aureus COL. At 2 hours post-infection, animals were treated with either P128 at 0.2 mg/kg via intraperitoneal route, or vancomycin at 55 mg/kg by subcutaneous route, or a combination of both by respective routes. Groups treated with only vancomycin or combination of P128 and vancomycin were administered a second dose of vancomycin 12 hours after the first dose.
In the same model, efficacy of daptomycin in combination with P128 was evaluated. At 2 hours post-infection, animals were treated with either P128 at 0.2 mg/kg administered by intraperitoneal route, or daptomycin at 12.5 mg/kg administered by subcutaneous route; or a combination of both administered by respective routes. Groups treated with only daptomycin or combination of P128 and daptomycin were administered a second dose of daptomycin 12 hours after the first daptomycin dose.

[3] = tested on: S. haemolyticus B9511 biofilms; assay: MBIC and checkerboard synergy on preformed biofilm (MTT assay); format: cell-based; settings: S. haemolyticus B9511 72 h preformed biofilm, 6 hr treatment
Procedure: (§3) […] LB supplemented with 50 μg/mL Ca^++ was used for daptomycin treatment wells. The contents of the well was aspirated out and discarded. The biofilm adhered to the wells was quantified by MTT assay as described above. In each experiment, in addition to the combination MBIC, the MBIC of each drug was also determined individually. The fractional MBIC concentrations were determined by MTT dye method as described above. The FICI and synergy was calculated.

[4] = tested on: S. lugdunensis B9510 biofilms; assay: as above; format: cell-based; settings: S. lugdunensis B9510 72 h preformed biofilm, 6 hr treatment
Procedure: as §3

[5] = S. aureus COL, Daptomycin 12.5 mg/kg sc 2 doses, 24 mice per group
[6] = S. aureus COL 10^9 CFU ip, Vancomycin 55 mg/kg sc 2 doses, 26 mice per group

Row | Molecule | CFU/mL after treatment of persisters ([1]; B9377 Daptomycin persisters) | CFU/mL after treatment of persisters ([1]; B9377 Vancomycin persisters) | CFU/mL after treatment of persisters ([1]; BK18 Daptomycin persisters) | CFU/mL after treatment of persisters ([1]; BK18 Vancomycin persisters) | CFU/mL after treatment of persisters ([2]; B9470 Daptomycin persisters) | CFU/mL after treatment of persisters ([2]; B9470 Vancomycin persisters) | Reduction in CFU counts (S. aureus biofilm) | Survival at 72 h post infection (S. aureus COL; [5]) [%] | MBIC (drug alone) [3] | MBIC (drug alone) [4] | Survival at 72 h post infection (S. aureus COL; [6]) [%] | Drop in CFU ([1]; Vancomycin persisters (1×10^6 CFU/mL) of S. aureus BK18 and B9377 treated with P128) [log] | CFU recovered ([1]; daptomycin persisters of S. aureus treated with P128) [CFU/mL] | Cells killed (S. aureus biofilm; S. aureus ATCC 29213 72 h biofilm, P128 7.8 μg/mL, 6 h) [%] | Cell killing (S. aureus biofilm; S. aureus ATCC 29213 72 h biofilm, P128 greater than 31 μg/mL, 6 h) [%]
1 | CCCCCCCCCC(=O)N[C@@H](Cc1c[nH]c2ccccc12)C(=O)N[C@H](CC(N)=O)C(=O)N[C@@H](CC(=O)O)C(=O)N[C@@H]1C(=O)NCC(=O)N[C@@H](CCCN)C(=O)N[C@@H](CC(=O)O)C(=O)N[C@H](C)C(=O)N[C@@H](CC(=O)O)C(=O)NCC(=O)N[C@H](CO)C(=O)N[C@@H]([C@H](C)CC(=O)O)C(=O)N[C@@H](CC(=O)c2ccccc2N)C(=O)O[C@@H]1C [Daptomycin, daptomycin] | 1 × 10^2 CFU/mL | 6 × 10^5 CFU/mL | 1 × 10^1 CFU/mL | 7.5 × 10^5 CFU/mL | 1.3 × 10^6 CFU/mL | 2.1 × 10^2 CFU/mL | 1 log | 45 | >250 µg/mL | 15.6 µg/mL |  |  |  |  | 
2 | CC(=O)NC[C@H]1CN(c2ccc(N3CCOCC3)c(F)c2)C(=O)O1 [Linezolid, linezolid] |  |  |  |  |  |  |  |  | >250 µg/mL | 125 µg/mL |  |  |  |  | 
3 | CN[C@H](CC(C)C)C(=O)N[C@H]1C(=O)N[C@@H](CC(N)=O)C(=O)N[C@H]2C(=O)N[C@H]3C(=O)N[C@H](C(=O)N[C@H](C(=O)O)c4cc(O)cc(O)c4-c4cc3ccc4O)[C@H](O)c3ccc(c(Cl)c3)Oc3cc2cc(c3O[C@@H]2O[C@H](CO)[C@@H](O)[C@H](O)[C@H]2O[C@H]2C[C@](C)(N)[C@H](O)[C@H](C)O2)Oc2ccc(cc2Cl)[C@H]1O [Vancomycin, vancomycin] | 2.6 × 10^2 CFU/mL | 4 × 10^5 CFU/mL | 1 × 10^1 CFU/mL | 8 × 10^5 CFU/mL | 5 × 10^5 CFU/mL | 1.5 × 10^3 CFU/mL | no significant effect |  | >250 µg/mL | 250 µg/mL | 46 |  |  |  | 
4 | B1 | 1 × 10^1 CFU/mL | 2.5 × 10^1 CFU/mL | 1 × 10^1 CFU/mL | 5 × 10^1 CFU/mL | 2.5 × 10^2 CFU/mL | 7 × 10^1 CFU/mL | 3 log | 45 | 6.25 µg/mL and 12.5 µg/mL | 32 µg/mL and 16 µg/mL | 30 | ~5 | < 10 | > 90 | 99.9
